The target of the assay is T1, USP28 (His-tagged USP28-FL-mammalian) (Homo sapiens, UniProt Q96RU2).
T1 construct: Expression of USP28 (1-1077)-TEV-6*His (pTT5 vector); made in house; host or cells: Expi293f cells (pTT5 vector)
T1 sequence (Q96RU2 1-1077): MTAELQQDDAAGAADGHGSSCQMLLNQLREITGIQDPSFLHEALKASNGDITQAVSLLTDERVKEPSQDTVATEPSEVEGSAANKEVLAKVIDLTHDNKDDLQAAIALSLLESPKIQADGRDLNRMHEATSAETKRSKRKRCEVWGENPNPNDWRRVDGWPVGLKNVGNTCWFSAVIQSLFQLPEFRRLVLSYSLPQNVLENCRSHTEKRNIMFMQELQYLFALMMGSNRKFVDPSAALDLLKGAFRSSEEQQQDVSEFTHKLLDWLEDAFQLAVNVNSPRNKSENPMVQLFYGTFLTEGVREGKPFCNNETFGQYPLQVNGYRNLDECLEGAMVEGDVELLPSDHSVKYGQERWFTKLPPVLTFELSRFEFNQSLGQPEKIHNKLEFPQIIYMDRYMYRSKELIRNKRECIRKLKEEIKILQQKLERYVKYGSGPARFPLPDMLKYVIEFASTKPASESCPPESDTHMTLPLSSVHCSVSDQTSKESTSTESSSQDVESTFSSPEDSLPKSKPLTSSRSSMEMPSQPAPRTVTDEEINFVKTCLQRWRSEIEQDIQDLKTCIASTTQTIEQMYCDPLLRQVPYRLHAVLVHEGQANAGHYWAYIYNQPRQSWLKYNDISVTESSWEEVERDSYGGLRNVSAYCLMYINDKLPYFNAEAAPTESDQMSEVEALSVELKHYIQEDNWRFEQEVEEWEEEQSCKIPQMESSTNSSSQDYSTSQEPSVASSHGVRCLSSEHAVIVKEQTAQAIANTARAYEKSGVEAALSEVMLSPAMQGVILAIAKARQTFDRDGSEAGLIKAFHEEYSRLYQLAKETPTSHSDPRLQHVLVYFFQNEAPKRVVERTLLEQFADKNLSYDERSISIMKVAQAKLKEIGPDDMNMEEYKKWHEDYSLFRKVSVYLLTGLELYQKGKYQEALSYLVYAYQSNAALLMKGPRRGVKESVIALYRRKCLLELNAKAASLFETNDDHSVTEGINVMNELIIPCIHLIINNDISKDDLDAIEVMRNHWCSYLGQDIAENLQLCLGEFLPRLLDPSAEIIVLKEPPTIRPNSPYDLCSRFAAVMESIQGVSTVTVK
Kind of assay: Ubiquitin-Rhodamine 110 Assay for USP28 Activity, Example A-1(a). The following applies: Ubiquitin-Rhodamine 110 assay, Example A-1(a); read-out: USP28 A-1(a) IC50 range. In kind it is biochemical. Summed up:
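IC50 from 4-parameter logistic fit of percent inhibition versus no-enzyme and DMSO controls; compounds 25 μM to 1.3 nM, 3-fold. Ub-Rh110 cleavage (25 nM, below Km) by […] mammalian-expressed USP28-FL-His ran 45 min at room temperature, stopped with 10 mM citric acid, read ex 485/em 535.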

Take `Cc1ccc2c(N)c(C(=O)N[C@H]3COc4cc(N5C[C@H]6CCN[C@H]6C5)ccc4C3)sc2n1` [Example 305, N-[(3R)-7-[(3aR,6aR)-octahydropyrrolo[3,4-b]pyrrol-5-yl]-3,4-dihydro-2H-1-benzopyran-3-yl]-3-amino-6-methylthieno[2,3-b]pyridine-2-carboxamide]: the IC50 lay within 0.001 to 0.05 µM.

Turning to `Cc1ccc2c(N)c(C(=O)N[C@H]3COc4cc(N5CCC6(CNC6)C5)ccc4C3)sc2n1` [Example 306, 3-amino-N-[(3R)-7-{2,6-diazaspiro[3.4]octan-6-yl}-3,4-dihydro-2H-1-benzopyran-3-yl]-6-methylthieno[2,3-b]pyridine-2-carboxamide], the IC50 lay within 0.001 to 0.05 µM. With `Cc1ccc2c(N)c(C(=O)N[C@H]3COc4cc(N5C[C@H](N)[C@]6(CCCO6)C5)ccc4C3)sc2n1` [Example 307, 3-amino-N-[(3R)-7-[(5S,9S)-9-amino-1-oxa-7-azaspiro[4.4]nonan-7-yl]-3,4-dihydro-2H-1-benzopyran-3-yl]-6-methylthieno[2,3-b]pyridine-2-carboxamide], the IC50 was in the range of 0.001 to 0.05 µM. To `Cc1ccc2c(N)c(C(=O)N[C@H]3COc4cc(N5C[C@@H](N)[C@@]6(CCCO6)C5)ccc4C3)sc2n1` [Example 308, 3-amino-N-[(3R)-7-[(5R,9R)-9-amino-1-oxa-7-azaspiro[4.4]nonan-7-yl]-3,4-dihydro-2H-1-benzopyran-3-yl]-6-methylthieno[2,3-b]pyridine-2-carboxamide] belongs 0.05 to 0.2 µM; to `Cc1ccc2c(N)c(C(=O)N[C@H]3COc4cc(N5C[C@@H](N)[C@]6(CCCO6)C5)ccc4C3)sc2n1` [Example 309, 3-amino-N-[(3R)-7-[(5S,9R)-9-amino-1-oxa-7-azaspiro[4.4]nonan-7-yl]-3,4-dihydro-2H-1-benzopyran-3-yl]-6-methylthieno[2,3-b]pyridine-2-carboxamide], 0.001 to 0.05 µM; to `Cc1ccc2c(N)c(C(=O)N[C@H]3COc4cc(N5C[C@H](N)[C@@]6(CCCO6)C5)ccc4C3)sc2n1` [Example 310, 3-amino-N-[(3R)-7-[(5R,9S)-9-amino-1-oxa-7-azaspiro[4.4]nonan-7-yl]-3,4-dihydro-2H-1-benzopyran-3-yl]-6-methylthieno[2,3-b]pyridine-2-carboxamide], 0.001 to 0.05 µM. Turning to `CN[C@H]1CN(c2ccc3c(n2)CC[C@H](NC(=O)c2sc4nc(C)ccc4c2N)C3)C[C@@H]1OC` [Example 311, 3-amino-N-[(6S)-2-[(3S,4S)-3-methoxy-4-(methylamino)pyrrolidin-1-yl]-5,6,7,8-tetrahydroquinolin-6-yl]-6-methylthieno[2,3-b]pyridine-2-carboxamide], the IC50 was in the range of 0.05 to 0.2 µM. Take `CN[C@H]1CN(c2ccc3c(n2)CC[C@H](NC(=O)c2sc4nc(C)cc(C)c4c2N)C3)C[C@@H]1OC` [Example 312, 3-amino-N-[(6S)-2-[(3S,4S)-3-methoxy-4-(methylamino)pyrrolidin-1-yl]-5,6,7,8-tetrahydroquinolin-6-yl]-4,6-dimethylthieno[2,3-b]pyridine-2-carboxamide]: the IC50 lay within 0.05 to 0.2 µM.

For `CCOC[C@@H]1CN(c2ccc3c(c2)OC[C@H](NC(=O)c2sc4nc(C)ccc4c2N)C3)C[C@@H]1N` [Example 313, 3-amino-N-[(3R)-7-[(3R,4R)-3-amino-4-(ethoxymethyl)pyrrolidin-1-yl]-3,4-dihydro-2H-1-benzopyran-3-yl]-6-methylthieno[2,3-b]pyridine-2-carboxamide], the IC50 lay within 0.001 to 0.05 µM. For `CCOC[C@H]1CN(c2ccc3c(c2)OC[C@H](NC(=O)c2sc4nc(C)ccc4c2N)C3)C[C@H]1N` [Example 314, 3-amino-N-[(3R)-7-[(3S,4S)-3-amino-4-(ethoxymethyl)pyrrolidin-1-yl]-3,4-dihydro-2H-1-benzopyran-3-yl]-6-methylthieno[2,3-b]pyridine-2-carboxamide] the value was 0.001 to 0.05 µM. As to `CO[C@H]1CCN(c2ccc3c(c2)OC[C@H](NC(=O)c2sc4nc(C)cc(C)c4c2N)C3)C[C@@H]1N` [Example 317, 3-amino-N-[(3R)-7-[(3S,4S)-3-amino-4-methoxypiperidin-1-yl]-3,4-dihydro-2H-1-benzopyran-3-yl]-4,6-dimethylthieno[2,3-b]pyridine-2-carboxamide], the IC50 was in the range of 0.001 to 0.05 µM. For `CO[C@@H]1CCN(c2ccc3c(c2)OC[C@H](NC(=O)c2sc4nc(C)cc(C)c4c2N)C3)C[C@H]1N` [Example 318, 3-amino-N-[(3R)-7-[(3R,4R)-3-amino-4-methoxypiperidin-1-yl]-3,4-dihydro-2H-1-benzopyran-3-yl]-4,6-dimethylthieno[2,3-b]pyridine-2-carboxamide] the value was 0.001 to 0.05 µM.

`Cc1cnc2c(N)c(C(=O)N[C@H]3CCc4cc(N5C[C@H](OC(C)C)[C@@H](N)C5)ccc4C3)sc2n1` [Example 319, 7-amino-N-[(2S)-6-[(3S,4S)-3-amino-4-(propan-2-yloxy)pyrrolidin-1-yl]-1,2,3,4-tetrahydronaphthalen-2-yl]-3-methylthieno[2,3-b]pyrazine-6-carboxamide]: the IC50 fell in the range of 0.05 to 0.2 µM.

For the compound `Cc1ccc2c(N)c(C(=O)N[C@H]3CCc4nc(N5C[C@H](OC(C)C)[C@@H](N)C5)ccc4C3)sc2n1` [Example 320], the IC50 fell in the range of 0.05 to 0.2 µM. Regarding `Cc1ccc2c(N)c(C(=O)N[C@H]3CCc4nc(N5C[C@H](N)[C@H](OC(C)C)C5)ccc4C3)sc2n1` [Example 321, 3-amino-N-[(6S)-2-[(3S,4R)-3-amino-4-(propan-2-yloxy)pyrrolidin-1-yl]-5,6,7,8-tetrahydroquinolin-6-yl]-6-methylthieno[2,3-b]pyridine-2-carboxamide], the IC50 fell in the range of 0.2 to 2 µM. To `Cc1ccc2c(N)c(C(=O)N[C@H]3CCc4nc(N5C[C@@H](N)[C@@H](OC(C)C)C5)ccc4C3)sc2n1` [Example 322, 3-amino-N-[(6S)-2-[(3R,4S)-3-amino-4-(propan-2-yloxy)pyrrolidin-1-yl]-5,6,7,8-tetrahydroquinolin-6-yl]-6-methylthieno[2,3-b]pyridine-2-carboxamide] belongs 0.2 to 2 µM; to `CCO[C@H]1CN(c2ccc3c(c2)OC[C@H](NC(=O)c2sc4nc(C)cc(C)c4c2N)C3)C[C@H]1N` [Example 324, 3-amino-N-[(3R)-7-[(3R,4S)-3-amino-4-ethoxypyrrolidin-1-yl]-3,4-dihydro-2H-1-benzopyran-3-yl]-4,6-dimethylthieno[2,3-b]pyridine-2-carboxamide], 0.05 to 0.2 µM. Regarding `CO[C@@]1(C)CN(c2ccc3c(n2)OC[C@H](NC(=O)c2sc4nc(C)ccc4c2N)C3)C[C@@H]1N` [Example 325, 3-amino-N-[(3R)-7-[(3S,4S)-4-amino-3-methoxy-3-methylpyrrolidin-1-yl]-2H,3H,4H-pyrano[2,3-b]pyridin-3-yl]-6-methylthieno[2,3-b]pyridine-2-carboxamide], the IC50 lay within 0.05 to 0.2 µM. Regarding `CO[C@]1(C)CN(c2ccc3c(n2)OC[C@H](NC(=O)c2sc4nc(C)ccc4c2N)C3)C[C@H]1N` [Example 326, 3-amino-N-[(3R)-7-[(3R,4R)-4-amino-3-methoxy-3-methylpyrrolidin-1-yl]-2H,3H,4H-pyrano[2,3-b]pyridin-3-yl]-6-methylthieno[2,3-b]pyridine-2-carboxamide], the IC50 was 0.05 to 0.2 µM.

In the case of `COC[C@H]1CN(c2ccc3c(n2)CC[C@H](NC(=O)c2sc4nc(C)ccc4c2N)C3)C[C@@H]1N` [Example 327, 3-amino-N-[(6S)-2-[(3R,4S)-3-amino-4-(methoxymethyl)pyrrolidin-1-yl]-5,6,7,8-tetrahydroquinolin-6-yl]-6-methylthieno[2,3-b]pyridine-2-carboxamide], the IC50 lay in the range of 0.05 to 0.2 µM. To `COC[C@@H]1CN(c2ccc3c(n2)CC[C@H](NC(=O)c2sc4nc(C)ccc4c2N)C3)C[C@H]1N` [Example 328, 3-amino-N-[(6S)-2-[(3S,4R)-3-amino-4-(methoxymethyl)pyrrolidin-1-yl]-5,6,7,8-tetrahydroquinolin-6-yl]-6-methylthieno[2,3-b]pyridine-2-carboxamide] belongs 0.2 to 2 µM; to `Cc1ccc2c(N)c(C(=O)N[C@H]3CCc4nc(N5C[C@H]6NCCC(F)(F)[C@H]6C5)ccc4C3)sc2n1` [Example 329, N-[(6S)-2-[(4aS,7aS)-4,4-difluoro-octahydro-1H-pyrrolo[3,4-b]pyridin-6-yl]-5,6,7,8-tetrahydroquinolin-6-yl]-3-amino-6-methylthieno[2,3-b]pyridine-2-carboxamide], 0.05 to 0.2 µM.

In general, IC50 refers to the point on the concentration scale where inhibition reaches its midpoint.
